Data: PubChem BioAssay (NCI)
Values after ≈ are worked out from the molar mass of the structure shown.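 Five compound concentrations were applied to cells in 96-well plates for 48 hours; endpoints were derived by simple linear interpolation of the resulting dose-response curve. At the GI50, growth is halved. TGI marks complete inhibition of growth.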

Columns and labels:
Test in all cases: growth of human tumour cells (NCI), 48 h
BT-549 breast = test system: BT-549 breast
MDA-MB-435 = test system: MDA-MB-435
SR leukemia = test system: SR leukemia
NCI-H226 lung = test system: NCI-H226 lung
SK-MEL-28 melanoma = test system: SK-MEL-28 melanoma
SF-295 CNS = test system: SF-295 CNS
SK-OV-3 ovarian = test system: SK-OV-3 ovarian
SK-MEL-2 melanoma = test system: SK-MEL-2 melanoma
HS 578T breast = test system: HS 578T breast
A498 renal = test system: A498 renal

SMILES: CC1(C)CCC2(C(=O)OC3OC(CO)C(O)C(O)C3O)CCC3(C)C(=CCC4C5(C)CCC(OC6OC(CO)C(O)C(O)C6O)C(C)(C)C5CCC43C)C2C1 (stereo not drawn)
- TGI (BT-549 breast): > 25 µM
- TGI (MDA-MB-435): > 25 µM
- TGI (SR leukemia): 10.7 µM
- TGI (NCI-H226 lung): > 25 µM
- TGI (SK-MEL-28 melanoma): > 25 µM
- TGI (SF-295 CNS): > 25 µM
- TGI (SK-OV-3 ovarian): > 25 µM
- TGI (SK-MEL-2 melanoma): 14.8 µM
- TGI (HS 578T breast): > 25 µM
- TGI (A498 renal): > 25 µM

SMILES: N[C@H]1CCN(c2c(F)cc3c(=O)c(C(=O)O)cn4c3c2Oc2cc3c(ccc5ccccc53)cc2-4)C1
- TGI (BT-549 breast): > 100 µM
- TGI (MDA-MB-435): > 100 µM
- TGI (SR leukemia): > 100 µM
- TGI (NCI-H226 lung): 58.5 µM
- TGI (SF-295 CNS): > 100 µM
- TGI (SK-OV-3 ovarian): > 100 µM
- TGI (SK-MEL-2 melanoma): 43.5 µM
- TGI (A498 renal): > 100 µM

SMILES: NCCNc1nc(N2CCCC2)c2nc(Cl)c(NCc3ccccc3)nc2n1
- TGI (BT-549 breast): 4.12 µM
- TGI (MDA-MB-435): 3.19 µM
- TGI (SR leukemia): 2.95 µM
- TGI (NCI-H226 lung): 15.7 µM
- TGI (SK-MEL-28 melanoma): 3.39 µM
- TGI (SF-295 CNS): 3.5 µM
- TGI (SK-OV-3 ovarian): 3.79 µM
- TGI (SK-MEL-2 melanoma): 3.37 µM
- TGI (HS 578T breast): 12.8 µM
- TGI (A498 renal): 4.4 µM

SMILES: C/C(=N\NC(=O)c1cccnc1)c1cccc(/C(C)=N/NC(=O)c2cccnc2)n1
- GI50 (SR leukemia): 4.56 µM
- TGI (SR leukemia): > 100 µM
- GI50 (SK-MEL-28 melanoma): 9.56 µM
- TGI (SK-MEL-28 melanoma): > 100 µM
- TGI (SF-295 CNS): 20.5 µM
- TGI (SK-OV-3 ovarian): 82.4 µM
- GI50 (SK-MEL-2 melanoma): 2.33 µM
- TGI (SK-MEL-2 melanoma): 7.02 µM
- GI50 (A498 renal): 4.86 µM
- TGI (A498 renal): 68.1 µM

SMILES: CC1(C)CC(=O)C2=C(C1)NC(SSC1=C(C#N)C(c3ccc(F)cc3)C3=C(CC(C)(C)CC3=O)N1)=C(C#N)C2c1ccc(F)cc1 (stereo not drawn)
- GI50 (BT-549 breast): 30 µg/mL (≈ 45.8 µM)
- TGI (BT-549 breast): 55.4 µg/mL
- GI50 (MDA-MB-435): 26.2 µg/mL (≈ 40 µM)
- TGI (MDA-MB-435): 46.9 µg/mL
- GI50 (SR leukemia): 48.9 µg/mL
- TGI (SR leukemia): > 150 µg/mL
- GI50 (SK-MEL-28 melanoma): 25.8 µg/mL
- TGI (SK-MEL-28 melanoma): 46.4 µg/mL
- GI50 (SF-295 CNS): 150 µg/mL (≈ 229 µM)
- TGI (SF-295 CNS): > 150 µg/mL
- GI50 (SK-OV-3 ovarian): 15 µg/mL (≈ 22.9 µM)
- TGI (SK-OV-3 ovarian): 15 µg/mL
- GI50 (HS 578T breast): 76.9 µg/mL (≈ 117 µM)
- TGI (HS 578T breast): > 150 µg/mL

SMILES: CC(Sc1ccccc1)C(CO)(CO)[N+](=O)[O-] (stereo not drawn)
- TGI (SR leukemia): 5.72 µM
- TGI (NCI-H226 lung): 33 µM
- TGI (SF-295 CNS): 28.9 µM
- TGI (SK-OV-3 ovarian): 39.9 µM
- TGI (SK-MEL-2 melanoma): 54 µM

SMILES: COc1ccc(/C=C(\C#N)c2nc(N)nc(N3N=C(C)CC3(C)C)n2)c(O)c1
- TGI (BT-549 breast): > 100 µM
- TGI (MDA-MB-435): 33.1 µM
- TGI (SR leukemia): 35.7 µM
- TGI (NCI-H226 lung): 35.9 µM
- TGI (SK-MEL-28 melanoma): 29.6 µM
- TGI (SF-295 CNS): 43 µM
- TGI (SK-OV-3 ovarian): 65.1 µM
- TGI (SK-MEL-2 melanoma): 38.9 µM
- TGI (HS 578T breast): 40 µM
- TGI (A498 renal): 69.7 µM

SMILES: C[C@]12CC[C@@H]3c4ccccc4CC[C@H]3[C@@H]1CC[C@@H]2O
- TGI (SR leukemia): > 100 µM
- TGI (SK-MEL-28 melanoma): > 100 µM
- TGI (SF-295 CNS): > 100 µM
- TGI (SK-OV-3 ovarian): > 100 µM

SMILES: O=S(=O)(O)c1cccc2c(N=Nc3c(O)ccc4ccccc34)cccc12
- TGI (BT-549 breast): > 100 µM
- TGI (MDA-MB-435): > 100 µM
- TGI (SR leukemia): > 100 µM
- TGI (NCI-H226 lung): > 100 µM
- TGI (SK-MEL-28 melanoma): > 100 µM
- TGI (SF-295 CNS): > 100 µM
- TGI (SK-OV-3 ovarian): > 100 µM
- TGI (SK-MEL-2 melanoma): > 100 µM
- TGI (HS 578T breast): > 100 µM
- TGI (A498 renal): > 100 µM

SMILES: CN1C2CCC1C(C(O)c1ccccc1[N+](=O)[O-])C(=O)C2 (stereo not drawn)
- TGI (BT-549 breast): > 100 µM
- TGI (MDA-MB-435): 53 µM
- TGI (NCI-H226 lung): 73.3 µM
- TGI (SK-MEL-28 melanoma): > 100 µM
- TGI (SF-295 CNS): > 100 µM
- TGI (SK-OV-3 ovarian): > 100 µM
- TGI (SK-MEL-2 melanoma): > 100 µM
- TGI (HS 578T breast): > 100 µM
- TGI (A498 renal): > 100 µM

SMILES: Nc1nc(N)c2c(n1)NC(c1ccccc1)CC(/C=C/c1ccc(Cl)cc1)=N2 (stereo not drawn)
- TGI (BT-549 breast): 37.9 µM
- TGI (MDA-MB-435): 21.1 µM
- TGI (NCI-H226 lung): 27.7 µM
- TGI (SK-MEL-28 melanoma): 28.1 µM
- TGI (SF-295 CNS): 36.2 µM
- TGI (SK-OV-3 ovarian): 29.4 µM
- TGI (SK-MEL-2 melanoma): 42.7 µM
- TGI (HS 578T breast): 9.94 µM
- TGI (A498 renal): 32.9 µM

SMILES: O=S1(=O)OC(c2ccc(O)cc2)(c2ccc(O)cc2)c2ccccc21
- TGI (BT-549 breast): > 100 µM
- TGI (MDA-MB-435): > 100 µM
- TGI (NCI-H226 lung): > 100 µM
- TGI (SK-MEL-28 melanoma): > 100 µM
- TGI (SF-295 CNS): > 100 µM
- TGI (SK-OV-3 ovarian): > 100 µM
- TGI (SK-MEL-2 melanoma): > 100 µM
- TGI (HS 578T breast): > 100 µM
- TGI (A498 renal): > 100 µM
